Assay results taken from patent US12077503B2, “Substituted cyclic amides and their use as herbicides” (FMC CORPORATION, priority 2015, dated 2024).

Key:
Type in all cases: in vivo
Kochia (Kochia scoparia) [1] = experiment: Test A preemergence; details: Bassia scoparia, pre-emergence, 240 h, Preemergence
How it was run: (§1)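 In a loam soil and sand blend, planted seeds got a preemergence directed soil spray, and young plants at the one- to two-leaf stage, 2–10 cm high, got a postemergence application; ~10 d greenhouse hold; injury rated visually, 0 = none, 100 = complete control.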

[2] = system: barnyardgrass (Echinochloa crus-galli); experiment: Test A preemergence; details: Echinochloa crus-galli, pre-emergence, 240 h, Preemergence
How it was run: as §1

[3] = system: pigweed (Amaranthus retroflexus); experiment: Test A preemergence; details: Amaranthus retroflexus, pre-emergence, 240 h, Preemergence
[4] = system: ragweed (common ragweed, Ambrosia elatior); experiment: Test A preemergence; details: Ambrosia artemisiifolia, pre-emergence, 240 h, Preemergence
How it was run: as §1

[5] = system: giant foxtail (Setaria faberii); experiment: Test A preemergence; details: Setaria faberi, pre-emergence, 240 h, Preemergence
How it was run: as §1

[6] = system: ryegrass, Italian (Italian ryegrass, Lolium multiflorum); experiment: Test A preemergence; details: Lolium multiflorum, pre-emergence, 240 h, Preemergence
How it was run: as §1

[7] = system: sedge, umbrella (small-flower umbrella sedge, Cyperus difformis); experiment: Test B flooded paddy test; details: Cyperus difformis, 250 g ai/ha, Flood; 0 to 100 scale where 0 is no effect and 100 is complete control; read-out: Sedge, Umbrella plant response rating
How it was run: (§2)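 Plants at 2-leaf stage flooded to 3 cm above soil, with compounds applied directly to paddy water and that depth maintained. Plants kept in greenhouse 13–15 d. Visual rating versus controls on a 0 (no effect) to 100 (complete control) scale.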

[8] = system: ducksalad (Heteranthera limosa); experiment: Test B flooded paddy test; details: Heteranthera limosa, 250 g ai/ha, Flood; 0 to 100 scale where 0 is no effect and 100 is complete control; read-out: Ducksalad plant response rating
How it was run: as §2

[9] = system: barnyardgrass (Echinochloa crus-galli); experiment: Test B flooded paddy test; details: Echinochloa crus-galli, 250 g ai/ha, Flood; 0 to 100 scale where 0 is no effect and 100 is complete control; read-out: Barnyardgrass plant response rating
How it was run: as §2

rice (Oryra sativa) = experiment: Test B flooded paddy test; details: Oryza sativa, 250 g ai/ha, Flood; 0 to 100 scale where 0 is no effect and 100 is complete control; read-out: Rice plant response rating
How it was run: as §2

[10] = system: wheat (Triticum aestivum); experiment: Test A postemergence; details: Triticum aestivum, post-emergence, 240 h
How it was run: as §1

[11] = system: blackgrass (Alopecurus myosuroides); experiment: Test A postemergence; details: Alopecurus myosuroides, post-emergence, 240 h
How it was run: as §1

[12] = system: Galium (catchweed bedstraw, Galium aparine); experiment: Test A postemergence; details: Galium, post-emergence, 240 h
How it was run: as §1

corn (Zea mays) = experiment: Test A postemergence; details: Zea mays, post-emergence, 240 h
How it was run: as §1

Kochia (Kochia scoparia) [13] = experiment: Test A postemergence; details: Bassia scoparia, post-emergence, 240 h
How it was run: as §1

[14] = system: barnyardgrass (Echinochloa crus-galli); experiment: Test A postemergence; details: Echinochloa crus-galli, post-emergence, 240 h
How it was run: as §1

[15] = system: pigweed (Amaranthus retroflexus); experiment: Test A postemergence; details: Amaranthus retroflexus, post-emergence, 240 h
How it was run: as §1

[16] = system: ragweed (common ragweed, Ambrosia elatior); experiment: Test A postemergence; details: Ambrosia artemisiifolia, post-emergence, 240 h
How it was run: as §1

[17] = system: giant foxtail (Setaria faberii); experiment: Test A postemergence; details: Setaria faberi, post-emergence, 240 h
How it was run: as §1

[18] = system: ryegrass, Italian (Italian ryegrass, Lolium multiflorum); experiment: Test A postemergence; details: Lolium multiflorum, post-emergence, 240 h
How it was run: as §1

CN1C[C@H](c2ccc(C(F)(F)F)cn2)[C@@H](C(=O)Nc2cccc(F)c2F)C1=O [Compound 1052]
85%: pest or weed control at 250 g/ha [9]
100%: pest or weed control at 250 g/ha [8]
90%: pest or weed control at 125 g/ha ([2]; 125 g ai/ha, visual injury rating after approximately 10 d, read-out: Barnyardgrass plant response rating (0 to 100 scale, 0 is no effect, 100 is complete control)) | pest or weed control at 125 g/ha ([5]; 125 g ai/ha, visual injury rating after approximately 10 d, read-out: Foxtail, Giant plant response rating (0 to 100 scale, 0 is no effect, 100 is complete control))
0%: pest or weed control at 31 g/ha ([4]; 31 g ai/ha, 0 to 100 scale where 0 is no effect and 100 is complete control, read-out: Ragweed plant response rating) | pest or weed control at 31 g/ha ([6]; 31 g ai/ha, 0 to 100 scale where 0 is no effect and 100 is complete control, read-out: Ryegrass, Italian plant response rating) | pest or weed control at 250 g/ha [7] | pest or weed control at 250 g/ha (rice (Oryra sativa)) | plant injury at 125 g/ha ([10]; 125 g ai/ha, postemergence, visual injury on 0 to 100 scale (0 no effect, 100 complete control), approx. 10 d, read-out: Wheat plant response rating) | plant injury at 31 g/ha ([10]; Postemergence, 31 g ai/ha, visual injury after approx. 10 d, 0 to 100 scale, 0 no effect, 100 complete control, read-out: Plant response rating, Wheat) | pest or weed control at 31 g/ha ([11]; Postemergence, 31 g ai/ha, visual injury after approx. 10 d, 0 to 100 scale, 0 no effect, 100 complete control, read-out: Plant response rating, Blackgrass) | plant injury at 125 g/ha (corn (Zea mays); 125 g ai/ha, postemergence, visual injury on 0 to 100 scale (0 no effect, 100 complete control), approx. 10 d, read-out: Corn plant response rating) | Corn plant response rating (crop injury, 0 = no effect, 100 = complete kill) at 31 g/ha (corn (Zea mays); Postemergence, 31 g ai/ha, visual injury after approx. 10 d, 0 to 100 scale, 0 no effect, 100 complete control) | pest or weed control at 31 g/ha (Kochia (Kochia scoparia) [13]; Postemergence, 31 g ai/ha, visual injury after approx. 10 d, 0 to 100 scale, 0 no effect, 100 complete control, read-out: Plant response rating, Kochia) | pest or weed control at 31 g/ha ([15]; Postemergence, 31 g ai/ha, visual injury after approx. 10 d, 0 to 100 scale, 0 no effect, 100 complete control, read-out: Plant response rating, Pigweed) | pest or weed control at 31 g/ha ([16]; Postemergence, 31 g ai/ha, visual injury after approx. 10 d, 0 to 100 scale, 0 no effect, 100 complete control, read-out: Plant response rating, Ragweed) | pest or weed control at 31 g/ha ([18]; Postemergence, 31 g ai/ha, visual injury after approx. 10 d, 0 to 100 scale, 0 no effect, 100 complete control, read-out: Plant response rating, Ryegrass, Italian)
80%: pest or weed control at 125 g/ha ([3]; 125 g ai/ha, visual injury rating after approximately 10 d, read-out: Pigweed plant response rating (0 to 100 scale, 0 is no effect, 100 is complete control)) | pest or weed control at 31 g/ha ([5]; 31 g ai/ha, 0 to 100 scale (0 no effect, 100 complete control), read-out: Plant response rating, Foxtail, Giant) | pest or weed control at 125 g/ha ([14]; 125 g ai/ha, postemergence, visual injury on 0 to 100 scale (0 no effect, 100 complete control), approx. 10 d, read-out: Barnyardgrass plant response rating)
70%: pest or weed control at 125 g/ha (Kochia (Kochia scoparia) [1]; 125 g ai/ha, visual injury rating after approximately 10 d, read-out: Kochia plant response rating (0 to 100 scale, 0 is no effect, 100 is complete control)) | pest or weed control at 125 g/ha ([12]; 125 g ai/ha, postemergence, visual injury on 0 to 100 scale (0 no effect, 100 complete control), approx. 10 d, read-out: Galium plant response rating) | pest or weed control at 125 g/ha ([17]; 125 g ai/ha, postemergence, visual injury on 0 to 100 scale (0 no effect, 100 complete control), approx. 10 d, read-out: Foxtail, Giant plant response rating)
40%: pest or weed control at 31 g/ha ([3]; 31 g ai/ha, 0 to 100 scale where 0 is no effect and 100 is complete control, read-out: Pigweed plant response rating) | pest or weed control at 31 g/ha ([12]; Postemergence, 31 g ai/ha, visual injury after approx. 10 d, 0 to 100 scale, 0 no effect, 100 complete control, read-out: Plant response rating, Galium) | pest or weed control at 125 g/ha (Kochia (Kochia scoparia) [13]; 125 g ai/ha, postemergence, visual injury on 0 to 100 scale (0 no effect, 100 complete control), approx. 10 d, read-out: Kochia plant response rating)
30%: pest or weed control at 31 g/ha ([2]; 31 g ai/ha, 0 to 100 scale (0 no effect, 100 complete control), read-out: Plant response rating, Barnyardgrass) | pest or weed control at 125 g/ha ([6]; 125 g ai/ha, visual injury rating after approximately 10 d, read-out: Ryegrass, Italian plant response rating (0 to 100 scale, 0 is no effect, 100 is complete control)) | pest or weed control at 31 g/ha ([14]; Postemergence, 31 g ai/ha, visual injury after approx. 10 d, 0 to 100 scale, 0 no effect, 100 complete control, read-out: Plant response rating, Barnyardgrass) | pest or weed control at 125 g/ha ([15]; 125 g ai/ha, postemergence, visual injury on 0 to 100 scale (0 no effect, 100 complete control), approx. 10 d, read-out: Pigweed plant response rating) | pest or weed control at 125 g/ha ([16]; 125 g ai/ha, postemergence, visual injury on 0 to 100 scale (0 no effect, 100 complete control), approx. 10 d, read-out: Ragweed plant response rating) | pest or weed control at 31 g/ha ([17]; Postemergence, 31 g ai/ha, visual injury after approx. 10 d, 0 to 100 scale, 0 no effect, 100 complete control, read-out: Plant response rating, Foxtail, Giant)
20%: pest or weed control at 31 g/ha (Kochia (Kochia scoparia) [1]; 31 g ai/ha, 0 to 100 scale where 0 is no effect and 100 is complete control, read-out: Kochia plant response rating) | pest or weed control at 125 g/ha ([4]; 125 g ai/ha, visual injury rating after approximately 10 d, read-out: Ragweed plant response rating (0 to 100 scale, 0 is no effect, 100 is complete control)) | pest or weed control at 125 g/ha ([11]; 125 g ai/ha, postemergence, visual injury on 0 to 100 scale (0 no effect, 100 complete control), approx. 10 d, read-out: Blackgrass plant response rating) | pest or weed control at 125 g/ha ([18]; 125 g ai/ha, postemergence, visual injury on 0 to 100 scale (0 no effect, 100 complete control), approx. 10 d, read-out: Ryegrass, Italian plant response rating)
